Data taken from patent publication US4247535A, “Modified cyclodextrin sulfate salts as complement inhibitors” (American Cyanamid Company, priority 1979, dated 1981).
Structures can show the parent of a compound that is named as a salt.

Columns and labels:
complement system = details: reported, British Journal of Experimental Pathology, 33, 327-339 (1952); cited from earlier work
[1] = test system: hereditary angioneurotic edema; details: reported in the literature; cited from earlier work
human serum = details: both in vitro and in vivo, judged by reduction in total hemolytic complement activity; cited from earlier work
[2] = test system: late components of human complement (C3-C9); experiment: Test Code 035 (C3-C9 inhibitor), lysis of EAC 142; assay type: biochemical; details: activity in wells, twofold serial dilution assay; higher well number = higher activity
Text: (§1) An active inhibitor protects C2 from C1 and C4; (ii) Test Code 035 (C3-C9 inhibitor)--This test determines the ability of the late components of human complement (C3-C9) to lyse EAC 142 in the presence of appropriate dilutions of the test compound. An active inhibitor protects EAC 142 from lysis by human C3-C9; (iii) Test Code 036 (C-Shunt inhibitor)--In this test human erythrocytes rendered fragile are lysed in autologous serum via the shunt pathway activated by cobra venom factor in the presence of appropriate dilutions of the test compound. Inhibition of the shunt pathway results in failure of lysis; (iv) Forssman Vasculitis Test--Here, the well known complement dependent lesion, Forssman vasculitis, is produced in guinea pigs by intradermal injection of rabbit anti-Forssman antiserum. […]

activated human C1 = activated human C1 (Homo sapiens, UniProt P09871); experiment: Test Code 026 (C1 inhibitor); assay type: biochemical; details: activity in wells, twofold serial dilution assay; higher well number = higher activity
Text: as §1

whole complement = experiment: Complement Level Reduction Test (in vivo, capillary tube assay of serum); details: 200 mg/kg i.v. or i.p.
Text: An active inhibitor protects C2 from C1 and C4; (ii) Test Code 035 (C3-C9 inhibitor)--This test determines the ability of the late components of human complement (C3-C9) to lyse EAC 142 in the presence of appropriate dilutions of the test compound. An active inhibitor protects EAC 142 from lysis by human C3-C9; (iii) Test Code 036 (C-Shunt inhibitor)--In this test human erythrocytes rendered fragile are lysed in autologous serum via the shunt pathway activated by cobra venom factor in the presence of appropriate dilutions of the test compound. Inhibition of the shunt pathway results in failure of lysis; (iv) Forssman Vasculitis Test--Here, the well known complement dependent lesion, Forssman vasculitis, is produced in guinea pigs by intradermal injection of rabbit anti-Forssman antiserum. The lesion is measured in terms of diameter, edema and hemorrhage and the extent to which a combined index of these is inhibited by prior intraperitoneal injection of the test compound at 200 mg/kg is then reported, unless otherwise stated; (v) Forssman Shock Test--Lethal shock is produced in guinea pigs by an i.v. injection of anti-Forssman antiserum and the harmonic mean death time of treated guinea pigs is compared with that of simultaneous controls; (vi) Complement Level Reduction Test--In this test, the above dosed guinea pigs, or others, are bled for serum and the complement level is determined in undiluted serum by the capillary tube method of U.S. Pat. No. 3,876,376 and compared to undosed control guinea pigs; and (vii) Cap 50 Test--Here, appropriate amounts of the test compound are added to a pool of guinea pig serum in vitro, after which the undiluted serum capillary tube assay referred to above is run. The concentration of compound inhibiting 50% is reported.
With reference to Table I, guinea pigs weighing about 300 g were dosed intravenously (i.v.) or intraperitoneally (i.p.) with 200 mg/kg of the test compound dissolved in saline and adjusted to pH 7-8. […] Percent inhibition was calculated by comparison with simultaneous controls. […]

shunt pathway = experiment: Test Code 036 (C-Shunt inhibitor), lysis of fragile human erythrocytes in autologous serum, cobra venom factor; assay type: cell-based; details: activity in wells, twofold serial dilution assay; higher well number = higher activity
Text: as §1

activated human C1, sequence (P09871 16-688): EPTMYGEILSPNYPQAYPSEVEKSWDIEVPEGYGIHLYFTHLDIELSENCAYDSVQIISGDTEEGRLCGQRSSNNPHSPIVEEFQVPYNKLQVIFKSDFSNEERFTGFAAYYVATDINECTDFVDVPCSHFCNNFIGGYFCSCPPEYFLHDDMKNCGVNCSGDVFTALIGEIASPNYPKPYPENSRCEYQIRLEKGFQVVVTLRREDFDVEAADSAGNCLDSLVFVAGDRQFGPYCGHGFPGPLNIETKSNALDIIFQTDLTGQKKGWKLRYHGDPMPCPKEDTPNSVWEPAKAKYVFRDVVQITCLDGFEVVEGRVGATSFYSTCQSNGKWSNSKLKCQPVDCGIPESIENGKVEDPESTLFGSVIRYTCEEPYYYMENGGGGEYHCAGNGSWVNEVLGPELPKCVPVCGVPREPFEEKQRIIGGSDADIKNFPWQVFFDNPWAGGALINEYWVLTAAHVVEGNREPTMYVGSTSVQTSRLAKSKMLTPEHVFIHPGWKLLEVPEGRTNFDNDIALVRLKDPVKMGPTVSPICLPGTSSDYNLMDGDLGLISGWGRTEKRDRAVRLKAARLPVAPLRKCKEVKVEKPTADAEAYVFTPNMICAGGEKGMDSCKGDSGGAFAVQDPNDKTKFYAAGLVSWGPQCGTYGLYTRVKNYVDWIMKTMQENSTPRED
activated human C1, sequence (P00736 18-705 partner): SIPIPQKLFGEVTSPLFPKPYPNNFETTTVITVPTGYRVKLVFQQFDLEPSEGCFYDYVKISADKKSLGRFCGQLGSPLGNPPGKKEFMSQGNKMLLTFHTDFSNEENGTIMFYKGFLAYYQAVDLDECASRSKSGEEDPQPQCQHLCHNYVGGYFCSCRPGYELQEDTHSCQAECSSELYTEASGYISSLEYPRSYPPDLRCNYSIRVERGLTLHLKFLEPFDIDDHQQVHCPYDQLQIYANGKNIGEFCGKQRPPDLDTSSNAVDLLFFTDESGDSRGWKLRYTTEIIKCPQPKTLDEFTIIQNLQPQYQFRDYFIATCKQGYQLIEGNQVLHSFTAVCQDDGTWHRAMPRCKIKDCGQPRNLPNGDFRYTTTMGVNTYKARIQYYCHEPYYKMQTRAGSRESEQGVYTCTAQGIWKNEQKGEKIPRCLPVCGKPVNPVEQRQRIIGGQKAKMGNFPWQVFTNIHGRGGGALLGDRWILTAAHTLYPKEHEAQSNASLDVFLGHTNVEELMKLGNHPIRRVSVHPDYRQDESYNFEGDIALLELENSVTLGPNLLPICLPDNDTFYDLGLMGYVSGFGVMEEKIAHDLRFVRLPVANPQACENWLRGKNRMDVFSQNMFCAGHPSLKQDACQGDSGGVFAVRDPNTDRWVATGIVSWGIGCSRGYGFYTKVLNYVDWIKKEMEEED
activated human C1, sequence (P02745 23-245 partner): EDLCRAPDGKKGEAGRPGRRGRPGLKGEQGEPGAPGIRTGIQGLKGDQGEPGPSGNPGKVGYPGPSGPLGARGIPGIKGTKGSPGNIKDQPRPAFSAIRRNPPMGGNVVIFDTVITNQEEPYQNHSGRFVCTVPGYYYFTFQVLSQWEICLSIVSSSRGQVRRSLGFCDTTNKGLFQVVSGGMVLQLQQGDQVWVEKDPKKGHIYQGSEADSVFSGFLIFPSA
activated human C1, sequence (P02746 28-253 partner): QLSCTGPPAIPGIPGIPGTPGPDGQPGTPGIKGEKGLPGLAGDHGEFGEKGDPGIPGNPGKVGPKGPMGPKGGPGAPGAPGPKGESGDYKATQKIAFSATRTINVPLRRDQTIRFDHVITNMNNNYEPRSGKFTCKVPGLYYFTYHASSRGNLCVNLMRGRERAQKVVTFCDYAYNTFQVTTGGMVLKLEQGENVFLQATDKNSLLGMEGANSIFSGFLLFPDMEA
activated human C1, sequence (P02747 29-245 partner): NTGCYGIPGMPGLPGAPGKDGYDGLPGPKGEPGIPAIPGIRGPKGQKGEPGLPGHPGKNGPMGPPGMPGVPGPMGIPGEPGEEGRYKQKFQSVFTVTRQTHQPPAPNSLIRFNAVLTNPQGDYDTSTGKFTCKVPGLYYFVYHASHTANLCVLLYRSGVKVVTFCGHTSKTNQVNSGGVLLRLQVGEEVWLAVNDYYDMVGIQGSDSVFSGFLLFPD

Nc1ccc2cc(S(=O)(=O)O)cc(O)c2c1N=Nc1ccc(NC(=O)Nc2ccc(N=Nc3c(N)ccc4cc(S(=O)(=O)O)cc(O)c34)c(S(=O)(=O)O)c2)cc1S(=O)(=O)O [chlorazol fast pink, 3,3'-ureylenebis-[6-(2-amino-8-hydroxy-6-sulfo-1-naphthylazo)]benzenesulfonic acid, tetrasodium salt]
anticomplementary effect (complement system): anticomplementary effect

NCCCCCC(=O)O [epsilon-aminocaproic acid]
treatment of hereditary angioneurotic edema [1]: used with success

NC[C@H]1CC[C@H](C(=O)O)CC1 [tranexamic acid]
treatment of hereditary angioneurotic edema [1]: used with success

heparin
anticomplementary effect (complement system): anticomplementary effect

pentosan-polysulfoester
anticomplementary activity on human serum (human serum): anticomplementary activity

O=C(O)[C@H]1O[C@@H]2O[C@H]3[C@H](O)[C@@H](O)[C@@H](O[C@H]4[C@H](O)[C@@H](O)[C@@H](O[C@H]5[C@H](O)[C@@H](O)[C@@H](O[C@H]6[C@H](O)[C@@H](O)[C@@H](O[C@H]7[C@H](O)[C@@H](O)[C@@H](O[C@H]8[C@H](O)[C@@H](O)[C@@H](O[C@H]1[C@H](O)[C@H]2O)O[C@@H]8C(=O)O)O[C@@H]7C(=O)O)O[C@@H]6C(=O)O)O[C@@H]5C(=O)O)O[C@@H]4C(=O)O)O[C@@H]3C(=O)O [5,5',5",5'",5"",5'"",5"""-Heptacarboxy-6,6',6",6'",6"",6'"",] [5,5',5",5'",5"",5'"",5"""-Heptacarboxy-6,6',6",6'",6"",6'"",6"""-heptademethyl-β-cyclodextrin]
035 In Vitro Activity [2]: N

O=C(O)[C@H]1O[C@@H]2O[C@H]3[C@H](OS(=O)(=O)O)[C@@H](OS(=O)(=O)O)[C@@H](O[C@H]4[C@H](OS(=O)(=O)O)[C@@H](OS(=O)(=O)O)[C@@H](O[C@H]5[C@H](OS(=O)(=O)O)[C@@H](OS(=O)(=O)O)[C@@H](O[C@H]6[C@H](OS(=O)(=O)O)[C@@H](OS(=O)(=O)O)[C@@H](O[C@H]7[C@H](OS(=O)(=O)O)[C@@H](OS(=O)(=O)O)[C@@H](O[C@H]8[C@H](OS(=O)(=O)O)[C@@H](OS(=O)(=O)O)[C@@H](O[C@H]1[C@H](OS(=O)(=O)O)[C@H]2OS(=O)(=O)O)O[C@@H]8C(=O)O)O[C@@H]7C(=O)O)O[C@@H]6C(=O)O)O[C@@H]5C(=O)O)O[C@@H]4C(=O)O)O[C@@H]3C(=O)O [5,5',5",5'",5"",5'"",5"""-Heptacarboxy-6,6',6",6'",6"",6'"",6"""-heptademethyl-β-cyclodextrin, heptasodium salt, tetradecakis (H-sulfate), tetradecasodium salt]
026 In Vitro Activity (activated human C1): +7 wells
035 In Vitro Activity [2]: +1 wells
In Vivo Activity (Guinea Pig) % Inhibition 30 min. (whole complement; 30 min.): -18%
In Vivo Activity (Guinea Pig) % Inhibition 60 min. (whole complement; 60 min.): +14%
In Vivo Activity (Guinea Pig) % Inhibition 120 min. (whole complement; 120 min.): -40%
036 In Vitro Activity (shunt pathway): +3 wells
